Results on 5 molecules are retold here after article PMC3005895 (Journal of Nucleic Acids, 2010).

The target in series [1] is T1, full-length heterotrimeric RPA (Homo sapiens, UniProt P27694).
T1 construct: Human full-length, untagged heterotrimeric RPA (RPA) was purified as previously described; made in house
Also noted: method as in earlier work. The settings on record: prior observation; cited from earlier work.

Series [2] is described as follows: Cellular activity (data not shown). In kind it is cell-based.
For series [3], the target named is T2, RPA DBD-A/B (Homo sapiens, UniProt P27694).
T2 construct: we subcloned amino acids 181–432 of human RPA p70; inferred from pET15b vector and nickel-NTA purification) (N); made in house; host or cells: E. coli BL21(DE3)
In words: Reversibility of inhibition: dialysis, then fluorescence polarization of DBD-A/B binding to F-dT12. The settings on record: preincubation 30 minutes, dialysis overnight, FP with F-dT12. As for the experimental part: Fluorescence polarization experiments were preformed as previously described in [23]. SMIs were diluted in H1 buffer (10 mM HEPES, pH 7.2, 1 mM DTT, 0.01% NP-40, and 100 mM NaCl), and the final DMSO concentration was kept below 1%.
To assess the reversibility of select SMIs, the indicated SMI was preincubated with RPA or the DBD-A/B construct for 30 minutes at room temperature. The resulting solution was dialyzed versus 500 mL H1 buffer at 4°C using 0.5 ml, 12,000 molecular weight cut-off dialysis cassettes (Pierce). The resulting protein was recovered and concentration determined by Bradford analysis. Analysis of DNA binding activity was performed either by EMSA or FP. In each series of experiments, there was no loss of DNA binding activity in vehicle control-treated protein.
Figure 3 Irreversible inhibition of RPA DBD-A/B-DNA-binding activity by CheSS19. (a) EMSA analysis of CheSS19 inhibition of RPA DBD-A/B. Assays were performed as described in the legend to Figure 2. […] (c) Quantification of the binding data presented in panels (a) and (b). (d) Fluorescence polarization analysis of CheSS19 inactivated RPA DBD-A/B. RPA DBD-A/B was preincubated with vehicle (1% DMSO) or CheSS19 (1 pmol in 1% DMSO) for 30 minutes at 37°C. […] The protein was recovered, and DNA-binding activity measured by FP analysis of binding to an F-dT12 substrate was performed as described in “Section 2”. […]
On the technique in general: Polarisation of emitted light reports the rotation of a fluorescent probe.

The next series deals with T3, E. coli SSB.
T3 construct: purchased Enzymatics, Beverly, MA
In words: E. coli SSB binding assay (EMSA). The settings on record: for effect on EcSSB binding to ssDNA (result in words): EMSA, preincubation with SMI. As for the experimental part:
E. coli SSB Binding Assay These EMSAs were performed similarly to those for the RPA constructs, with the following exceptions. Reactions contained 25 nM of 5′-[^32P]-labeled 3Pc3 ssDNA and 3.3 nM (assuming homotetramer formation) SSB protein (Enzymatics, Beverly, MA). Reactions (20 μL) were carried out in 20 mM HEPES, pH 7.5, 1 mM DTT, 0.01% NP-40, 100 mM NaCl and resolved by 6% native polyacrylamide gel electrophoresis at 25 mA for 2 hours. Gels were dried and quantified via phosphorimager analysis as described above.
In general terms: In EMSA bound probe runs differently from free probe, usually more slowly.

In series [4] the target is T1, full-length heterotrimeric RPA. In words: EMSA of full-length heterotrimeric RPA binding to ssDNA. The conditions noted are these: 3Pc3 ssDNA, three independent experiments, read-out: IC50 for inhibition of full-length heterotrimeric RPA. The method, then: RPA Human full-length, untagged heterotrimeric RPA (RPA) was purified as previously described in [17].
(§1) RPA and DBD-A/B Binding EMSAs were performed as previously described in [16] using a purine rich ssDNA substrate (3Pc3). Briefly, reactions contained 12.5 nM 5′-[^32P]-labeled 3Pc3 ssDNA and the indicated concentrations of RPA or DBD-A/B. Protein was preincubated with the indicated concentration of SMI for 30 minutes at 37°C. DNA was then added and reactions incubated for additional 5 minutes at room temperature in a final reaction volume of 40 μL. Reactions were then resolved on a 6% native polyacrylamide gel and electrophoresed at 170 volts for 1 hour. Gels were dried and quantified via phosphorimager analysis and ImageQuant software (Molecular Dynamics).

Series [5] has as its target T2, RPA DBD-A/B. In words: EMSA of RPA DBD-A/B binding to ssDNA. The conditions noted are these: for inhibition of DBD-A/B DNA binding (result in words): 25–200 μM inhibitor. The method, then: DBD-A/B The sequence encoding the RPA p70 DNA-binding domains A and B was subcloned from the hrRPA plasmid (provided by Dr. Marc Wold, University of Iowa) into the pET15b (Novagen) vector, and the protein was expressed in BL21(DE3) cells (Stratagene) as previously described in [9]. Briefly, cells were grown to an OD600 of 0.8, induced with 0.5 mM isopropyl-1-thio-β-D-galactopyranoside (IPTG) at 37°C for 2-3 hours. Small-scale DBD-A/B preparations were obtained from 1 L cultures, and, following induction, cells were harvested by centrifugation at 700 × g for 30 minutes at 4°C. The pellets were suspended in Buffer A (20 mM Tris, pH 7.5, 10% glycerol, 500 mM NaCl, 10 mM β-mercaptoethanol (BME), and 1 μg/mL phenylmethanesulfonyl fluoride (PMSF), leupeptin, and pepstatin) at 1 mL/gram of cells. The cells were lysed by sonication and insoluble material sedimented at 15,000 × g for 30 minutes at 4°C. The supernatant was then loaded onto a 10 mL phosphocellulose column, equilibrated with Buffer A, and the flow-through material collected. Imidazole was added to the flow-through to a final concentration of 5 mM, which was then loaded onto a 2 mL nickel-NTA-agarose column. The column was then washed with Buffer A containing 50 mM imidazole after which protein was eluted from the column using a gradient from 50–500 mM imidazole. Fractions were analyzed for protein content using Bradford and SDS-PAGE analysis in addition to assessment of DNA binding activity as determined by anisotropy. Fractions containing the DBD-A/B protein were pooled and dialyzed overnight in Buffer B (1 mM HEPES, pH 7.2, 10 mM dithiothreitol (DTT), 50 mM NaCl, and 1 μg/mL PMSF, pepstatin, and leupeptin) and aliquots stored at −80°C.
as §1

The target of series [6] is T1, full-length heterotrimeric RPA. In words: Reversibility of inhibition: dialysis, then EMSA of full-length RPA. In kind it is binding. The settings on record: dialysis overnight, EMSA with 34-base DNA. The method, then: as §1
To assess the reversibility of select SMIs, the indicated SMI was preincubated with RPA or the DBD-A/B construct for 30 minutes at room temperature. The resulting solution was dialyzed versus 500 mL H1 buffer at 4°C using 0.5 ml, 12,000 molecular weight cut-off dialysis cassettes (Pierce). The resulting protein was recovered and concentration determined by Bradford analysis. Analysis of DNA binding activity was performed either by EMSA or FP. […]
Figure 5 Irreversible inactivation of full-length heterotrimeric RPA by MCI13E. […] DNA binding activity of the resulting protein was assessed by EMSA using a 5′-[^32P]-ss 34-base DNA as described in “Section 2.” Lanes 1–4 predialysis, lanes 5 and 6 postdialysis.

The subject of series [7] is human lung cancer cell model. The settings on record: cited from earlier work.
Series [8] concerns the target T1, full-length heterotrimeric RPA. The settings on record: highest concentration tested (100 μM); cited from earlier work.
Series [9] addresses T4, Schizosaccharomyces pombe Pot1(DBD) (Schizosaccharomyces pombe, UniProt O13988).
T4 construct: gift of Dr. Deborah Wuttke, University of Colorado, Boulder
T4 sequence (O13988 1-389): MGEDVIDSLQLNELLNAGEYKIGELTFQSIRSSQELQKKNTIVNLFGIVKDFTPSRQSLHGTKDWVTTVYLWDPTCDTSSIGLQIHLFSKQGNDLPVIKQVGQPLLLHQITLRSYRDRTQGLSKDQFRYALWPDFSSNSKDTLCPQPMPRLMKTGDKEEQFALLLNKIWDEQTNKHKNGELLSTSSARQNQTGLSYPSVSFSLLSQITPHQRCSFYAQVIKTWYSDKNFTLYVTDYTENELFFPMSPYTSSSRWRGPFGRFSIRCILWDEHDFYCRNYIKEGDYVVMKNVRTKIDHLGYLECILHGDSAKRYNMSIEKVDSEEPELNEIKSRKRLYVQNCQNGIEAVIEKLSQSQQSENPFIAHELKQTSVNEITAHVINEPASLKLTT
In words: Schizosaccharomyces pombe Pot1(DBD) binding assay (EMSA). The conditions noted are these: 15-mer ssDNA, three independent experiments, read-out: IC50 for inhibition of SpPot1(DBD) ssDNA binding. The method, then:
Schizosaccharomyces pombe Pot1(DBD) Binding Assay EMSAs were performed as described above for EcSSB. Reactions contained 25 nM of 5′-[^32P]-labeled 15-mer ssDNA and 20 nM Pot1(DBD) protein (generously provided by Dr. Deborah Wuttke, University of Colorado, Boulder). Reactions (20 μL) were carried out in 20 mM HEPES, pH 7.5, 1 mM DTT, 0.01% NP-40, 100 mM NaCl, at room temperature, and resolved by 6% native polyacrylamide gel electrophoresis at 25 mA for 2 hours. Gels were dried and quantified via phosphorimager analysis as described above.

The target of series [10] is RPA DBD-A/B (human, UniProt P27694 181-432). In words: EMSA; ~50% of DNA bound at 125 nM protein; data not shown; DNA 12.5 nM; RPA/DBD-A/B EMSA: 12.5 nM DNA, protein preincubated with inhibitor 30 min at 37 C, then DNA 5 min at room temp; FP: 20 nM DNA, inhibitor diluted in H1 buffer (1).
Sequence of RPA DBD-A/B (human, UniProt P27694 181-432) (P27694 181-432): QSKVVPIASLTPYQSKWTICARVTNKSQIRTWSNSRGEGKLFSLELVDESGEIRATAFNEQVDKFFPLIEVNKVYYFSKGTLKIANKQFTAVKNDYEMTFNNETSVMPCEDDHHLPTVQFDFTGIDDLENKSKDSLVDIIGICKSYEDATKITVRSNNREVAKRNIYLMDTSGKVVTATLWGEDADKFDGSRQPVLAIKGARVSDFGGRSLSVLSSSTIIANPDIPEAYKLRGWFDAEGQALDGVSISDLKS

T1 sequence (P27694 whole entry): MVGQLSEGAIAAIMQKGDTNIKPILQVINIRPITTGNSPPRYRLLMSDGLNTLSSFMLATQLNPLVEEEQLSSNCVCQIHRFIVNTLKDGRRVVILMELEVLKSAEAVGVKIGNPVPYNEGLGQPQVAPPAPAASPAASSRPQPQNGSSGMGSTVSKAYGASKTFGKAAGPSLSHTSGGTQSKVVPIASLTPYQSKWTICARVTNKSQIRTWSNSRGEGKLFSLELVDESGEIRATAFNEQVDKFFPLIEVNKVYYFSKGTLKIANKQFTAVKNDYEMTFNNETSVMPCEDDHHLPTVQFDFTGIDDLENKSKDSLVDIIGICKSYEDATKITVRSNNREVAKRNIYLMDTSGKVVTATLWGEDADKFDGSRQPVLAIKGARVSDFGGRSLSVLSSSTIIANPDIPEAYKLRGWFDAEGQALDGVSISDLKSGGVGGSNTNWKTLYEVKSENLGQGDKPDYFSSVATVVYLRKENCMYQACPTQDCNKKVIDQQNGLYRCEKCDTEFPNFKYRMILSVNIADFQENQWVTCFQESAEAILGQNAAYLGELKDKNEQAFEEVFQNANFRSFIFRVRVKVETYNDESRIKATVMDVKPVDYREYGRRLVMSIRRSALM
T1 sequence (P15927 whole entry partner): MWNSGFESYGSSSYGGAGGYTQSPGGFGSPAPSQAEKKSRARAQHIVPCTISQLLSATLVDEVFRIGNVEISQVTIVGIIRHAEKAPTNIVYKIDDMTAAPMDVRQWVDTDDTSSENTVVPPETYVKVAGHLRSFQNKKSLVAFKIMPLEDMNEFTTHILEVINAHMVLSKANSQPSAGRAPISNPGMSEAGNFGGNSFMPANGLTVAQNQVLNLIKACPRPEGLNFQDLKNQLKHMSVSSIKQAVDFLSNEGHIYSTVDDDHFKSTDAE
T1 sequence (P35244 whole entry partner): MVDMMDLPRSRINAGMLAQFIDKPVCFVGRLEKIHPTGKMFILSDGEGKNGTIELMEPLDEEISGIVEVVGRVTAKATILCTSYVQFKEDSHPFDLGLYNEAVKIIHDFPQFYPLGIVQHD
T2 sequence (P27694 181-432): as the sequence (P27694 181-432) above

Consider `O=C1OC(=O)[C@H]2C3C=CC(CC3)[C@@H]12` [CheSS19], for which the “mode of inhibition of full-length RPA” value in series [1] was “irreversibly inhibited”. Also, the cellular activity result in series [2] was “does not display any cellular activity”. Further, the “mode of inhibition of DBD-A/B after dialysis” value on RPA DBD-A/B [3] is reported as “irreversible”. For the same molecule, the “effect on EcSSB binding to ssDNA (result in words)” value (“effect on EcSSB binding to ssDNA” below) in the series on E. coli SSB is “unaffected”.
As to `CC1(C)C2CCC1(C)C(OC(=O)CBr)C2` (stereo not drawn) [MCI13E], in series [4], the IC50 amounted to 16.1 µM. Moreover, the “inhibition of DBD-A/B DNA binding (result in words)” value on RPA DBD-A/B [5] (EMSA) was “lack of inhibition”. In addition, in [6], the “mode of inhibition of full-length RPA after dialysis” value was “inhibition was not reversed by dialysis”. In the series on E. coli SSB, the “effect on EcSSB binding to ssDNA” value was “unaffected”.
For `CC1(C)C2CCC1(C)C(OC(=O)CI)C2` (stereo not drawn) [MCI13F], the IC50 in [4] turned out to be 10.1 µM. Also, at RPA DBD-A/B [5] (EMSA), the “inhibition of DBD-A/B DNA binding (result in words)” value is reported as “lack of inhibition”. Further, the “effect on EcSSB binding to ssDNA” value in the series on E. coli SSB was “unaffected”.
For the molecule `CCOc1ccc2cc(C3CC(c4ccc(Br)cc4)=NN3C(=O)CCC(=O)O)c(Cl)nc2c1` (stereo not drawn) [TDRL-505], in [7], the synergy with etoposide entry was “synergize”. Also, in [7] (human lung cancer cell model), the synergy with cisplatin entry is given as “synergize”. Moreover, the IC50 on RPA DBD-A/B [5] (EMSA, 125 nM DBD-A/B, 12.5 nM DNA, TDRL-505 10–100 μM, read-out: half-maximal inhibition of DBD-A/B DNA binding activity) was ~40 µM; in series [9], 15.7 ± 1.6 µM. The “half-maximal inhibition of DBD-A/B relative to intact heterotrimer” value on RPA DBD-A/B [5] (compared with heterotrimer value of ref 12) is given as “about twice”. Further, the inhibition at 100 µM at RPA DBD-A/B [5] (highest concentration tested (100 μM), read-out: inhibition of RPA DBD-A/B DNA binding) is ~90%. In series [8], the “inhibition of RPA DNA binding” value is ~90%. Besides, in the series on E. coli SSB (100 μM, highest concentration tested), the “decrease in EcSSB binding to ssDNA” value is on record as ~ 20%. In addition, the “effect on EcSSB binding to ssDNA” value in the series on E. coli SSB was “ineffective”.
Regarding CTAGAAAGGGGGAAGAAAGGGAAGAGGCCAGAGA (ssDNA) [34-mer], in the series with RPA DBD-A/B [10], the “apparent K (half saturation)” value was ~125 nM.
